Data: patent US10077264B2, “Derivatives and methods of treating hepatitis B infections” (Novira Therapeutics, Inc., priority 2014, dated 2018)

The compounds below were run on HBV replication in HepG2.2.15 cells (assay: HBV replication inhibition assay (BDNA assay)). Details: HepG2.2.15 cells, 6 days, encapsidated HBV DNA in supernatant; read-out: Activity in BDNA-assay (EC50).
Assay type: cell-based
Excerpt: HBV replication inhibition by the compounds of this invention could be determined in cells infected or transfected with HBV, or cells with stably integrated HBV, such as HepG2.2.15 cells (Sells et al. 1987). In this example, HepG2.2.15 cells were maintained in cell culture medium containing 10% fetal bovine serum (FBS), Geneticin, L-glutamine, penicillin and streptomycin. HepG2.2.15 cells could be seeded in 96-well plates at a density of 40,000 cells/well and be treated with serially diluted compounds at a final DMSO concentration of 0.5% either alone or in combination by adding drugs in a checker box format. Cells were incubated with compounds for three days, after which medium was removed and fresh medium containing compounds was added to cells and incubated for another three days. At day 6, supernatant was removed and treated with DNase at 37° C. for 60 minutes, followed by enzyme inactivation at 75° C. for 15 minutes. Encapsidated HBV DNA was released from the virions and covalently linked HBV polymerase by incubating in lysis buffer (Affymetrix QS0010) containing […] proteinase K at 50° C. for 40 minutes. HBV DNA was denatured by addition of 0.2 M NaOH and detected using a branched DNA (BDNA) QuantiGene assay kit according to manufacturer recommendation (Affymetrix). HBV DNA levels could also be quantified using qPCR, based on amplification of encapsidated HBV DNA extraction with QuickExtraction Solution (Epicentre Biotechnologies) and amplification of HBV DNA using HBV specific PCR probes that can hybridize to HBV DNA and a fluorescently labeled probe for quantitation. In addition, cell viability of HepG2.2.15 cells incubated with test compounds alone or in combination was determined by using CellTitre-Glo reagent according to the manufacturer protocol (Promega). The mean background signal from wells containing only culture medium was subtracted from all other samples, and percent inhibition at each compound concentration was calculated by normalizing to signals from HepG2.2.15 cells treated with 0.5% DMSO using equation E1. % inhibition=(DMSOave−Xi)/DMSOave×100% E1: • where DMSOave is the mean signal calculated from the wells that were treated with DMSO control (0% inhibition control) and Xi is the signal measured from the individual wells. EC50 values, effective concentrations that achieved 50% inhibitory effect, were determined by non-linear fitting using Graphpad Prism software (San Diego, Calif.) and equation E2 Y=Ymin+(Ymax−Ymin)/(1+10(Log EC50−X)×HillSlope) E2: • where Y represents percent inhibition values and X represents the logarithm of compound concentrations.
Selected compounds of the invention were assayed in the HBV replication assay (BDNA assay), as described above and a representative group of these active compounds is shown in Table 3.

Row | SMILES | EC50 [µM]
1 | CC1Cc2[nH]nc(-c3ccccc3)c2CN1C(=O)Nc1cccc(Cl)c1 (single isomer, unassigned) [317 (E1), N-(3-chlorophenyl)-6-methyl-3-phenyl-1,4,6,7-tetrahydropyrazolo[4,3-c]pyridine-5-carboxamide] | 0.01 to 0.1
2 | Cc1cc(NC(=O)N2Cc3c(-c4cscn4)n[nH]c3CC2C)ccc1F (centres unmarked) [924 E2] | 0.01 to 0.1
3 | CC1Cc2[nH]nc(-c3cscn3)c2CN1C(=O)Nc1cccc(Br)c1F (centres unmarked) [920 E2] | 0.01 to 0.1
4 | Cc1cccc(NC(=O)N2Cc3c(-c4cscn4)n[nH]c3CC2C)c1 (centres unmarked) [923 E2] | 0.01 to 0.1

Same assay, conditions: Hepatitis B virus, 144 h; HepG2.2.15 cells, 10 μM, 6 days, encapsidated HBV DNA in supernatant; read-out: Activity in BDNA-assay (activity at 10 μM)

Row | SMILES | inhibition at 10 µM [%]
5 | O=C(Nc1cc(Cl)ccc1F)N1CCc2[nH]nc(-c3ccccc3)c2C1 [Compound 214] | > 50
6 | O=C(/C=C/c1ccccc1)N1CCc2[nH]nc(-c3ccccc3)c2C1 [Compound 057, (E)-3-phenyl-1-(3-phenyl-1,4,6,7-tetrahydropyrazolo[4,3-c]pyridin-5-yl)prop-2-en-1-one] | > 50
7 | O=C(Nc1cnc(Cl)c(Cl)c1)N1CCc2[nH]nc(-c3ccccc3)c2C1 [Compound 226] | > 50
8 | O=C(Nc1ccc(Cl)cc1)N1CCc2[nH]nc(-c3ccccc3)c2C1 [Compound 113] | > 50
9 | N#Cc1ccccc1OCC(=O)N1CCc2[nH]nc(-c3ccccc3)c2C1 [Compound 154] | > 50
10 | Cc1ccc(OCC(=O)N2CCc3[nH]nc(-c4ccccc4)c3C2)cc1 [Compound 147] | > 50
11 | CC(OC(=O)N1CCc2[nH]nc(-c3ccccc3)c2C1)c1ccccc1 (centres unmarked) [Compound 016, 1-phenylethyl 3-phenyl-1,4,6,7-tetrahydropyrazolo[4,3-c]pyridine-5-carboxylate] | > 50
12 | O=C(COc1ccc(Cl)cc1)N1CCc2[nH]nc(-c3ccccc3)c2C1 [Compound 150] | > 50
13 | O=C(C1C[C@H]1c1ccccc1)N1CCc2[nH]nc(-c3ccccc3)c2C1 (stereo in doubt) [Compound 030, (2-phenylcyclopropyl)-(3-phenyl-2,4,6,7-tetrahydropyrazolo[4,3-c]pyridin-5-yl)methanone] | > 50
14 | O=C(Nc1ccc(Br)c(Cl)c1)N1CCc2[nH]nc(-c3ccccc3)c2C1 [Compound 204] | > 50
15 | Cc1ccc(-c2n[nH]c3c2CN(C(=O)Nc2cccc(Cl)c2)CC3)cc1 [Compound 281, N-(3-chlorophenyl)-3-(p-tolyl)-1,4,6,7-tetrahydropyrazolo[4,3-c]pyridine-5-carboxamide] | > 50

Same assay, conditions: Hepatitis B virus, HepG2.2.15, 144 h, HepG2.2.15 cells, 6 days, encapsidated HBV DNA in supernatant; read-out: Activity in BDNA-assay (EC50)

Row | SMILES | EC50 [µM]
16 | Cc1ccccc1-c1n[nH]c2c1CN(C(=O)Nc1cccc(Cl)c1)CC2 [Compound 279, N-(3-chlorophenyl)-3-(o-tolyl)-1,4,6,7-tetrahydropyrazolo[4,3-c]pyridine-5-carboxamide] | 0.1 to 0.5
17 | O=C(Nc1cccc(Cl)c1)N1CCc2[nH]nc(-c3cccnc3F)c2C1 [Compound 472, N-(3-chlorophenyl)-3-(2-fluoro-3-pyridyl)-1,4,6,7-tetrahydropyrazolo[4,3-c]pyridine-5-carboxamide] | 0.1 to 0.5
18 | N#Cc1cc(NC(=O)N2CCc3[nH]nc(-c4ccccc4)c3C2)ccc1F [Compound 560] | 0.01 to 0.1
19 | Cc1cccc(-c2n[nH]c3c2CN(C(=O)Nc2cccc(Cl)c2)CC3)c1 [Compound 280, N-(3-chlorophenyl)-3-(m-tolyl)-1,4,6,7-tetrahydropyrazolo[4,3-c]pyridine-5-carboxamide] | 0.1 to 0.5
20 | COc1ccccc1-c1n[nH]c2c1CN(C(=O)Nc1cccc(Cl)c1)CC2 [Compound 327, N-(3-chlorophenyl)-3-(2-methoxyphenyl)-1,4,6,7-tetrahydropyrazolo[4,3-c]pyridine-5-carboxamide] | 0.1 to 0.5
21 | O=C(Nc1cccc(C2CC2)c1)N1CCc2[nH]nc(-c3ccccc3)c2C1 [Compound 556] | 0.1 to 0.5
22 | O=C(Nc1cccc(Cl)c1)N1CCc2[nH]nc(-c3ccsc3)c2C1 [Compound 562, N-(3-chlorophenyl)-3-(3-thienyl)-1,4,6,7-tetrahydropyrazolo[4,3-c]pyridine-5-carboxamide] | 0.01 to 0.1
23 | CC1CCCC(NC(=O)N2CCc3[nH]nc(-c4ccccc4)c3C2)C1 (centres unmarked) [Compound 436] | 0.5 to 1
24 | COc1cccc(-c2n[nH]c3c2CN(C(=O)Nc2cccc(Cl)c2)CC3)c1 [Compound 326, N-(3-chlorophenyl)-3-(3-methoxyphenyl)-1,4,6,7-tetrahydropyrazolo[4,3-c]pyridine-5-carboxamide] | 0.1 to 0.5
25 | O=C(Nc1cccc(Cl)c1)N1CCc2[nH]nc(-c3cccnc3)c2C1 [Compound 286, N-(3-chlorophenyl)-3-(3-pyridyl)-1,4,6,7-tetrahydropyrazolo[4,3-c]pyridine-5-carboxamide] | 0.5 to 1
26 | N#Cc1cccc(NC(=O)N2CCc3[nH]nc(-c4ccccc4)c3C2)c1F [Compound 559] | 0.01 to 0.1
27 | O=C(Nc1cccc(Cl)c1Cl)N1CCc2[nH]nc(-c3ccccc3)c2C1 [Compound 190] | 0.5 to 1
28 | CC1Cc2[nH]nc(-c3cscn3)c2CN1C(=O)Nc1cccc(Br)c1F (centres unmarked) [920 E1] | 0.01 to 0.1
29 | CC(Oc1ccccc1)C(=O)N1CCc2[nH]nc(-c3ccccc3)c2C1 (centres unmarked) [Compound 014, 2-phenoxy-1-(3-phenyl-1,4,6,7-tetrahydropyrazolo[4,3-c]pyridin-5-yl)propan-1-one] | 1 to 1.5
30 | O=C(Nc1cccc(Cl)c1)N1CCc2[nH]nc(-c3cncnc3)c2C1 [Compound 291, N-(3-chlorophenyl)-3-pyrimidin-5-yl-1,4,6,7-tetrahydropyrazolo[4,3-c]pyridine-5-carboxamide] | 0.1 to 0.5
31 | Cn1cc(-c2n[nH]c3c2CN(C(=O)Nc2cccc(Cl)c2)CC3)cn1 [Compound 495, N-(3-chlorophenyl)-3-(1-methylpyrazol-4-yl)-1,4,6,7-tetrahydropyrazolo[4,3-c]pyridine-5-carboxamide] | 1 to 1.5

Same assay, conditions: Hepatitis B virus, HepG2.2.15, 144 h, read-out: Activity in BDNA-assay (activity at 10 μM)

Row | SMILES | inhibition at 10 µM [%]
32 | COc1ccc(-c2n[nH]c3c2CN(C(=O)Nc2cccc(Cl)c2)CC3)cc1 [Compound 325, N-(3-chlorophenyl)-3-(4-methoxyphenyl)-1,4,6,7-tetrahydropyrazolo[4,3-c]pyridine-5-carboxamide] | > 50
